Results: patent publication US12018059B2, “Human amylin analog polypeptides and methods of use” (Intarcia Therapeutics, Inc., priority 2018, dated 2024)
In brackets after ≈: the same amount, converted by molar mass. Where two headings read alike, the source gives them in different places. Starred links: 1 amine or outer side, 2 acyl side, 3 side chain; linkers in the order of their positions; H or OH if unused. Positions of bridges follow the written chain, without caps; N, C: chain ends. Non-standard residues stand in square brackets, D forms with d. Residues, ends and D or L forms follow the SMILES beside them. Groups on a side chain read outwards from the residue. *: point of attachment. γGlu = O=C(O)[C@H](CCC(=O)[*:2])N[*:1]; Palmitoyl = CCCCCCCCCCCCCCCC(=O)*; AEEA = NCCOCCOCC(=O)O

Assays:
[1] = Solubility of amylin analog polypeptides (visual inspection, room temperature); assay type: physicochemical
Method: The analog polypeptides described herein were tested for solubility in saline 20% DMSO in water (i.e., bioassay buffer) or in aqueous (DI water) at room temperature. Samples were visually inspected for clarity of the sample, any appearance of turbidity or haziness.

in vivo = experiment: in vivo; set-up: species or system Sprague-Dawley rats; conditions: rat, iv, 0.033 mg/kg
How it was run: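 Male Sprague-Dawley rats, non-fasted (n=3), given peptide in saline as 1-h IV or SC infusion at 0.033 mg/kg, or SC bolus at 0.3 mg/kg; jugular blood to 48 h into K2EDTA plus protease inhibitors. Plasma extracted by precipitation or WCX solid-phase extraction, quantified by UPLC-MS/MS against standards in matching rat plasma.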

[2] = biological target: human amylin 3 receptor (hAMY3R) (Homo sapiens, UniProt O60896+P30988); experiment: cAMP accumulation functional assay in HEK293-CNG cells expressing hAMY3R; assay type: cell-based
Method: In the presence of the non-specific cAMP/cGMP phosphodiesterase inhibitor 3-isobutyl-1-methylxanthine (IBMX), accumulating cAMP can be measured in vitro using common detection methods. Thus, it is possible to estimate an in vitro potency (pEC50) for peptides activating each of these receptors using fit dose-response curves for cAMP accumulation.
Cells were carried in growth media for no more than 10 passages prior to testing.
Peptides were serially diluted in the same buffer as above for each given assay condition. Two assay control solutions consisting of 50 mcM forskolin (cAMP system maximum) or assay buffer only (cAMP system minimum) were also prepared in the appropriate stimulation buffers. Five microliters of each peptide-concentration, or assay control was added to triplicate wells and incubated for thirty minutes at room temperature. During this incubation step a 4× europium labelled cAMP tracer solution and a 4× Ulight®-anti-cAMP solution (consisting of an anti-cAMP monoclonal antibody labelled with Ulight™ dye) was prepared according to the manufacturer's protocol (PerkinElmer LANCE Ultra cAMP kit). Following this incubation, 5 mcL europium labelled cAMP and 5 mcL Ulight anti-cAMP antibody was added to wells. The plate was covered with an adhesive cover to prevent evaporation and incubated for 60 minutes at room temperature in the dark. Plates were read on an Envision fluorescent plate reader (PerkinElmer).
Test values were first normalized to the forskolin induced cAMP system maximum and system minimum averaged values in Excel using the formula: (test value−system minavg)/(system maxavg−system minavg)*100. Normalized test values represent a baseline corrected percentage of the system maximum cAMP response induced by forskolin. Normalized data was analyzed from triplicate tests and used to estimate the EC50 for each peptide on each receptor. Data was fit in GraphPad Prism software (v7.04) using a 4-parameter logistic curve model: Y=Bottom+(Top−Bottom)/(1+10^((Log EC50−X))). The Hill slope was constrained to 1.0. EC50 values were converted to pEC50 values using the formula: pEC50=−Log (EC50).

[3] = biological target: T1, human calcitonin receptor (hCTR) (Homo sapiens, UniProt P30988); experiment: cAMP accumulation functional assay in HEK293-CNG cells expressing hCTR; assay type: cell-based
T1 sequence (P30988 25-474): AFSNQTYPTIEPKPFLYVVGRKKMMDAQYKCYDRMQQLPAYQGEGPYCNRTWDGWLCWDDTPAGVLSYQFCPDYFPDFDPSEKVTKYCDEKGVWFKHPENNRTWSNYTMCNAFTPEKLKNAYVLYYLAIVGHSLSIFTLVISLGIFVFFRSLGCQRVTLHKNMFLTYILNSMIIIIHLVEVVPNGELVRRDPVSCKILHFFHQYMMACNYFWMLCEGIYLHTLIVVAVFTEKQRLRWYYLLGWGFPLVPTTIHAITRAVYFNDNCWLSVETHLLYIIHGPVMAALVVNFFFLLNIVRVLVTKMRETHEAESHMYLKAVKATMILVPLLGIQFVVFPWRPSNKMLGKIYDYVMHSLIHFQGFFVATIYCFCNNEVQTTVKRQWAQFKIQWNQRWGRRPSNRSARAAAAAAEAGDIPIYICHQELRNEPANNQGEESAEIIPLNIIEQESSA

[4] = Acute food intake inhibition after SC bolus injection (BioDAQ); conditions: 0-24 hr after acute SC dosing; Long Evans rats on 45% high fat diet

Chain of human amylin 3 receptor (hAMY3R) (O60896 24-148, one chain of several): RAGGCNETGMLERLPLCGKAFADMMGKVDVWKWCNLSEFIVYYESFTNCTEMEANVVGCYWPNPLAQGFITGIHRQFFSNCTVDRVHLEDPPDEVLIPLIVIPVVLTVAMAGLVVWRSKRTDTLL

Row | SMILES | solubility ([1]; TFA salt, DI H2O, room temperature, read-out: Solubility) | Vd (in vivo) | clearance (in vivo) | half-life (in vivo) | solubility ([1]; Solubility) | EC50 ([2]; 4% HSA, read-out: pEC50 hAMY3R 4% HSA (converted)) | EC50 ([2]; pEC50 hAMY3R 0.1% HSA, 0.1% HSA) | EC50 ([3]; hCTR 0% HSA, 0% HSA, read-out: pEC50 hCTR 0% HSA (converted)) | EC50 ([3]; hCTR 0.1% HSA, 0.1% HSA) | EC50 ([3]; hCTR 4% HSA, 4% HSA, read-out: pEC50 hCTR 4% HSA (converted)) | Acute Food Intake % Inhibition vs vehicle [4]
1 | CCCCCCCCCCCCCCCC(=O)N[C@@H](CCC(=O)N[C@@H](CCC(=O)N[C@@H](CCC(=O)NCCCC[C@@H](NC(=O)[C@H](CCC(=O)O)NC(=O)[C@H](CC(N)=O)NC(=O)[C@H](C)NC(=O)[C@H](CC(C)C)NC(=O)[C@H](CCCNC(=N)N)NC(=O)[C@H](CCC(N)=O)NC(=O)[C@@H](NC(=O)[C@H](C)NC(=O)[C@@H]1CSSC[C@H](NC(=O)[C@@H](N)CO)C(=O)N[C@@H](CC(N)=O)C(=O)N[C@@H]([C@@H](C)O)C(=O)N[C@@H](CO)C(=O)N[C@@H]([C@@H](C)O)C(=O)N1)[C@@H](C)O)C(=O)N[C@@H](Cc1c[nH]cn1)C(=O)N[C@@H](CCCCN)C(=O)N[C@@H](CO)C(=O)N[C@@H](CO)C(=O)N[C@@H](CC(N)=O)C(=O)N[C@@H](CC(N)=O)C(=O)N[C@@H](Cc1ccccc1)C(=O)NCC(=O)N1CCC[C@H]1C(=O)N[C@H](C(=O)N[C@@H](CC(C)C)C(=O)N1CCC[C@H]1C(=O)N1CCC[C@H]1C(=O)N[C@H](C(=O)N[C@@H](CCCCN)C(=O)N[C@H](C(=O)NCC(=O)N[C@@H](CO)C(=O)N[C@@H](CC(N)=O)C(=O)N[C@H](C(=O)N[C@@H](Cc1ccc(O)cc1)C(N)=O)[C@@H](C)O)C(C)C)[C@@H](C)O)[C@@H](C)CC)C(=O)O)C(=O)O)C(=O)O [Compound A67] (H-SCNTSTCATQRLANE[dK]([γGlu-γGlu-γGlu-Palmitoyl])HKSSNNFGPILPPTKVGSNTY-NH2; disulfide 2-7) | 70.6 mg/mL | 0.198 L/kg | 0.357 mL/min/kg | 7.14 h |  |  |  |  |  |  | 
2 | CCCCCCCCCCCCCCCC(=O)N[C@@H](CCC(=O)N[C@@H](CCC(=O)N[C@@H](CCC(=O)N[C@@H](CCC(=O)NCCCC[C@@H](NC(=O)[C@H](CCC(=O)O)NC(=O)[C@H](CC(N)=O)NC(=O)[C@H](C)NC(=O)[C@H](CC(C)C)NC(=O)[C@H](CCCNC(=N)N)NC(=O)[C@H](CCC(N)=O)NC(=O)[C@@H](NC(=O)[C@H](C)NC(=O)[C@@H]1CSSC[C@H](NC(=O)[C@@H](N)CO)C(=O)N[C@@H](CC(N)=O)C(=O)N[C@@H]([C@@H](C)O)C(=O)N[C@@H](CO)C(=O)N[C@@H]([C@@H](C)O)C(=O)N1)[C@@H](C)O)C(=O)N[C@@H](Cc1c[nH]cn1)C(=O)N[C@@H](CCCCN)C(=O)N[C@@H](CO)C(=O)N[C@@H](CO)C(=O)N[C@@H](CC(N)=O)C(=O)N[C@@H](CC(N)=O)C(=O)N[C@@H](Cc1ccccc1)C(=O)NCC(=O)N1CCC[C@H]1C(=O)N[C@H](C(=O)N[C@@H](CC(C)C)C(=O)N1CCC[C@H]1C(=O)N1CCC[C@H]1C(=O)N[C@H](C(=O)N[C@@H](CCCCN)C(=O)N[C@H](C(=O)NCC(=O)N[C@@H](CO)C(=O)N[C@@H](CCC(=O)O)C(=O)N[C@H](C(=O)N[C@@H](Cc1ccc(O)cc1)C(N)=O)[C@@H](C)O)C(C)C)[C@@H](C)O)[C@@H](C)CC)C(=O)O)C(=O)O)C(=O)O)C(=O)O [Compound A66] (H-SCNTSTCATQRLANE[dK]([γGlu-γGlu-γGlu-γGlu-Palmitoyl])HKSSNNFGPILPPTKVGSETY-NH2; disulfide 2-7) |  | 0.194 L/kg | 0.259 mL/min/kg | 9.59 h | 78.3 mg/mL (≈ 16.5 mM) |  |  |  |  |  | 
3 | CCCCCCCCCCCCCCCC(=O)N[C@@H](CCC(=O)N[C@@H](CCC(=O)N[C@@H](CCC(=O)N[C@@H](CCC(=O)NCCOCCOCC(=O)NCCOCCOCC(=O)N[C@@H](CCC(=O)NCCCC[C@H](NC(=O)[C@H](CCC(=O)O)NC(=O)[C@H](CC(N)=O)NC(=O)[C@H](C)NC(=O)[C@H](CC(C)C)NC(=O)[C@H](CCCNC(=N)N)NC(=O)[C@H](CCC(N)=O)NC(=O)[C@@H](NC(=O)[C@H](C)NC(=O)[C@@H]1CSSC[C@H](NC(=O)[C@@H](N)CO)C(=O)N[C@@H](CC(N)=O)C(=O)N[C@@H]([C@@H](C)O)C(=O)N[C@@H](CO)C(=O)N[C@@H]([C@@H](C)O)C(=O)N1)[C@@H](C)O)C(=O)N[C@@H](Cc1c[nH]cn1)C(=O)N[C@@H](CCCCN)C(=O)N[C@@H](CO)C(=O)N[C@@H](CO)C(=O)N[C@@H](CC(N)=O)C(=O)N[C@@H](CC(N)=O)C(=O)N[C@@H](Cc1ccccc1)C(=O)NCC(=O)N1CCC[C@H]1C(=O)N[C@H](C(=O)N[C@@H](CC(C)C)C(=O)N1CCC[C@H]1C(=O)N1CCC[C@H]1C(=O)N[C@H](C(=O)N[C@@H](CCCCN)C(=O)N[C@H](C(=O)NCC(=O)N[C@@H](CO)C(=O)N[C@@H](CCC(=O)O)C(=O)N[C@H](C(=O)N[C@@H](Cc1ccc(O)cc1)C(N)=O)[C@@H](C)O)C(C)C)[C@@H](C)O)[C@@H](C)CC)C(=O)O)C(=O)O)C(=O)O)C(=O)O)C(=O)O [Compound A5] (H-SCNTSTCATQRLANEK([γGlu-AEEA-AEEA-γGlu-γGlu-γGlu-γGlu-Palmitoyl])HKSSNNFGPILPPTKVGSETY-NH2; disulfide 2-7; N-terminus assumed) |  | 0.137 L/kg | 0.135 mL/min/kg | 15 h |  | 631 pM | 15.8 pM | 15.8 pM | 316 pM | 15800 pM | 37%
